# Data reported in ChEMBL document CHEMBL4251601 (Eur J Med Chem, 2018).
# Legend:
# [1] = biological target: STE20-like serine/threonine-protein kinase (Homo sapiens) (UniProt Q9H2G2); assay: Inhibition of recombinant human full length GST-tagged SLK expressed in baculovirus expression system at 1 uM by LanthaScreen assay relative to control
# [2] = biological target: 3-phosphoinositide-dependent protein kinase 1 (Homo sapiens) (UniProt O15530); assay: Inhibition of recombinant human full length His-tagged PDK1 expressed in baculovirus expression system at 0.1 uM by Z'-Lyte assay relative to control
# [3] = biological target: Tyrosine-protein kinase Srms (Homo sapiens) (UniProt Q9H3Y6); assay: Inhibition of recombinant human full length GST-tagged SRMS expressed in baculovirus expression system at 1 uM by TR-FRET assay relative to control
# Chain of Tyrosine-protein kinase Srms (Homo sapiens) (Q9H3Y6 whole entry): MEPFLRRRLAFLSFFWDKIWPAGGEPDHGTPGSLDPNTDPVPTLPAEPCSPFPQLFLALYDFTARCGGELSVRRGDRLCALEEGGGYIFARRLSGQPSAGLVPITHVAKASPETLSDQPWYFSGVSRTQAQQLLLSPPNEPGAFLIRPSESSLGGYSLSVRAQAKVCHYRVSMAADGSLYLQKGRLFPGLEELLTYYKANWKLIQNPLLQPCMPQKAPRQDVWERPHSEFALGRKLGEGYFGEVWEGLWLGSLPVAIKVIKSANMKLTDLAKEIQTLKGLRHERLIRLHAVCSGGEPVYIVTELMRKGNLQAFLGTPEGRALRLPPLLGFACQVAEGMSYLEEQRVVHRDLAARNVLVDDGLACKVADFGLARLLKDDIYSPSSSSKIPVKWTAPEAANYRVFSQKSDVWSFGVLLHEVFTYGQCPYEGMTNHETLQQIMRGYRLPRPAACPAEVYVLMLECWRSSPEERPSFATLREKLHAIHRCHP
# [4] = biological target: cAMP-dependent protein kinase catalytic subunit alpha (Homo sapiens) (UniProt P17612); assay: Inhibition of recombinant human His-tagged PKA expressed in Escherichia coli at 0.1 uM by Z'-Lyte assay relative to control
# [5] = biological target: Protein-tyrosine kinase 6 (Homo sapiens) (UniProt Q13882); assay: Inhibition of recombinant human full length His-tagged PTK6 expressed in baculovirus expression system at 0.1 uM by TR-FRET assay relative to control
# [6] = biological target: Tyrosine-protein kinase Tec (Homo sapiens) (UniProt P42680); assay: Inhibition of recombinant human full length His-tagged TEC expressed in baculovirus expression system at 0.1 uM by TR-FRET assay relative to control
# [7] = biological target: RAC-gamma serine/threonine-protein kinase (Homo sapiens) (UniProt Q9Y243); assay: Inhibition of recombinant full length human His-tagged AKT3 expressed in baculovirus expression system at 1 uM by TR-FRET assay relative to control
# Chain of RAC-gamma serine/threonine-protein kinase (Homo sapiens) (Q9Y243 whole entry, the tested form may be a part): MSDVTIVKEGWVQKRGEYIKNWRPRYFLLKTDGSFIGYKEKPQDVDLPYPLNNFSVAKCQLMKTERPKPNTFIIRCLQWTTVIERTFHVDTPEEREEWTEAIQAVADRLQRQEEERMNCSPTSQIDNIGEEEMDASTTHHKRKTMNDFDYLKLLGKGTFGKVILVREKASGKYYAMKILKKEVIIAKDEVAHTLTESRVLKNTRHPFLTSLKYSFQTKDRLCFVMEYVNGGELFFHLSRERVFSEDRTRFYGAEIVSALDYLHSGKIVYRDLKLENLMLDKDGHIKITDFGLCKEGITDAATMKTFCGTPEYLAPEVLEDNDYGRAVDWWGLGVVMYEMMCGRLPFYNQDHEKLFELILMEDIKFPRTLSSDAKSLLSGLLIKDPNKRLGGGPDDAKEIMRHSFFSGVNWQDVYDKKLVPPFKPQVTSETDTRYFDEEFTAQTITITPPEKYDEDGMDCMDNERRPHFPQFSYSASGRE
# [8] = biological target: Misshapen-like kinase 1 (Homo sapiens) (UniProt Q8N4C8); assay: Inhibition of recombinant human GST-tagged MINK (1 to 320 residues) expressed in baculovirus expression system at 1 uM by Z'-Lyte assay relative to control
# [9] = biological target: CDK8/Cyclin C (Homo sapiens) (UniProt P49336+P24863); assay: Inhibition of recombinant full length human His-tagged CDK8/Cyclin-C expressed in baculovirus expression system at 0.1 uM by LanthaScreen assay relative to control
# [10] = biological target: High affinity nerve growth factor receptor (Homo sapiens) (UniProt P04629); assay: Inhibition of recombinant human His-tagged TRKA cytoplasmic domain expressed in baculovirus expression system at 1 uM by Z'-Lyte assay relative to control
# [11] = Fraction unbound in CD-1 mouse plasma at 2 uM incubated for 4 hrs by LC/MS/MS analysis based equillibriun dialysis method; format: ADME, cell-free
# [12] = biological target: Phosphatidylinositol 4,5-bisphosphate 3-kinase catalytic subunit delta isoform (Homo sapiens) (UniProt O00329); assay: Inhibition of PI3K delta (unknown origin) at 0.1 uM by ADP-Glo assay relative to control
# [13] = system: Epidermal growth factor receptor (Homo sapiens), P00533 [L858R,T790M]; assay: Inhibition of recombinant human GST-tagged EGFR T790M/L858R double mutant expressed in baculovirus expression system at 1 uM by TR-FRET assay relative to control
# [14] = biological target: MAP kinase-activated protein kinase 2 (Homo sapiens) (UniProt P49137); assay: Inhibition of recombinant human full length His-tagged MK2 expressed in Escherichia coli at 0.1 uM by Z'-Lyte assay relative to control
# [15] = biological target: STE20-like serine/threonine-protein kinase (Homo sapiens) (UniProt Q9H2G2); assay: Inhibition of recombinant human full length GST-tagged SLK expressed in baculovirus expression system at 0.1 uM by LanthaScreen assay relative to control
# [16] = system: ALK tyrosine kinase receptor (Homo sapiens), Q9UM73 [C1156Y]; assay: Inhibition of recombinant N-terminal GST-tagged human ALK cytoplasmic domain (1058 to 1620 residues) C1156Y mutant expressed in baculovirus expression system at 1 uM by TR-FRET assay relative to control
# [17] = system: Proto-oncogene tyrosine-protein kinase receptor Ret (Homo sapiens), P07949 [V804L]; assay: Inhibition of recombinant human GST-tagged RET V804L mutant expressed in baculovirus expression system at 0.1 uM by Z'-Lyte assay relative to control
# [18] = biological target: Tyrosine-protein kinase Lyn (Homo sapiens) (UniProt P07948); assay: Inhibition of recombinant human full length GST-tagged Lyn-A expressed in insect cells at 1 uM by Z'-Lyte assay relative to control
# [19] = biological target: Dual specificity tyrosine-phosphorylation-regulated kinase 3 (Homo sapiens) (UniProt O43781); assay: Inhibition of recombinant full length human GST-tagged DYRK3 expressed in baculovirus expression system at 1 uM by Z'-Lyte assay relative to control
# Chain of Dual specificity tyrosine-phosphorylation-regulated kinase 3 (Homo sapiens) (O43781 whole entry): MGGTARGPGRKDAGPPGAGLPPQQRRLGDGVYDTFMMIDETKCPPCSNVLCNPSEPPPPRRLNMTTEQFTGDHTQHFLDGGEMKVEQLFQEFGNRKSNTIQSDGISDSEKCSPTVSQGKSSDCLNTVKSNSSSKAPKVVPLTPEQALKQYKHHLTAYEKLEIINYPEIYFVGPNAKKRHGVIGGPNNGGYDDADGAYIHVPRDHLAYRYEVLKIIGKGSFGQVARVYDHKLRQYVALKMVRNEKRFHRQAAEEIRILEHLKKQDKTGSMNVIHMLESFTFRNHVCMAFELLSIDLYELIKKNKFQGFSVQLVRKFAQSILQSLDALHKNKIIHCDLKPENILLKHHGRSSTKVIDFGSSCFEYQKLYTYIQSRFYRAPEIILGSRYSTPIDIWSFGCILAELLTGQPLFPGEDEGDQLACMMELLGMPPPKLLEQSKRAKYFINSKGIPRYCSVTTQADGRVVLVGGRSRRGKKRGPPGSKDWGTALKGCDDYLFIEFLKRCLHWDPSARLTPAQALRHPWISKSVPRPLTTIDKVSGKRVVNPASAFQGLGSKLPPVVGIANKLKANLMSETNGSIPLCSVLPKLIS
# [20] = biological target: Serine/threonine-protein kinase PLK1 (Homo sapiens) (UniProt P53350); assay: Inhibition of recombinant human full length His-tagged PLK1 expressed in baculovirus expression system at 1 uM by Z'-Lyte assay relative to control
# [21] = Cmax in CD-1 mouse brain at 10 mg/kg, po administered as single dose by LC-MS/MS analysis; format: ADME, organism-based; design: dose 10 mg/kg, route oral
# [22] = biological target: RAF proto-oncogene serine/threonine-protein kinase (Homo sapiens) (UniProt P04049); assay: Inhibition of RAF1 (unknown origin) at 1 uM by TR-FRET assay relative to control
# [23] = biological target: Serine/threonine-protein kinase Chk2 (Homo sapiens) (UniProt O96017); assay: Inhibition of recombinant full length human His-tagged CHEK2 expressed in baculovirus expression system at 1 uM by Z'-Lyte assay relative to control
# Chain of Serine/threonine-protein kinase Chk2 (Homo sapiens) (O96017 whole entry, the tested form may be a part): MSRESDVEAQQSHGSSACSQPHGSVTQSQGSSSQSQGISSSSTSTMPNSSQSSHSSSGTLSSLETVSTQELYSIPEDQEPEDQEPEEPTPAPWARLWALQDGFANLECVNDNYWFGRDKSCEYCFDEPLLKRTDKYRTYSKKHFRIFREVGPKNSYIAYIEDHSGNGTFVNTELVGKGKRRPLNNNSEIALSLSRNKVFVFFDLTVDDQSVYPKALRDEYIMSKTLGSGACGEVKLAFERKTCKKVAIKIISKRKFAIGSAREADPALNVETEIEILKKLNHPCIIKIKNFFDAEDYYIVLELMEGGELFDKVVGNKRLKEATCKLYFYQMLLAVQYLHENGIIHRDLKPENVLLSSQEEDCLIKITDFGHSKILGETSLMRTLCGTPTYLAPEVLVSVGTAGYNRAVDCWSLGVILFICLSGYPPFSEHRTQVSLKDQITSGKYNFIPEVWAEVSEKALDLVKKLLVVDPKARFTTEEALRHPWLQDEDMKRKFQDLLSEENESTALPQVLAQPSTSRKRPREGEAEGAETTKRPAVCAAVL
# [24] = biological target: Ephrin type-A receptor 2 (Homo sapiens) (UniProt P29317); assay: Inhibition of recombinant human GST-tagged EPHA2 cytoplasmic domain expressed in baculovirus expression system at 1 uM by Z'-Lyte assay relative to control
# [25] = biological target: Tyrosine-protein kinase JAK1 (Homo sapiens) (UniProt P23458); assay: Inhibition of recombinant human GST-tagged JAK1 expressed in baculovirus expression system at 0.1 uM by TR-FRET assay relative to control
# Chain of Tyrosine-protein kinase JAK1 (Homo sapiens) (P23458 whole entry, the tested form may be a part): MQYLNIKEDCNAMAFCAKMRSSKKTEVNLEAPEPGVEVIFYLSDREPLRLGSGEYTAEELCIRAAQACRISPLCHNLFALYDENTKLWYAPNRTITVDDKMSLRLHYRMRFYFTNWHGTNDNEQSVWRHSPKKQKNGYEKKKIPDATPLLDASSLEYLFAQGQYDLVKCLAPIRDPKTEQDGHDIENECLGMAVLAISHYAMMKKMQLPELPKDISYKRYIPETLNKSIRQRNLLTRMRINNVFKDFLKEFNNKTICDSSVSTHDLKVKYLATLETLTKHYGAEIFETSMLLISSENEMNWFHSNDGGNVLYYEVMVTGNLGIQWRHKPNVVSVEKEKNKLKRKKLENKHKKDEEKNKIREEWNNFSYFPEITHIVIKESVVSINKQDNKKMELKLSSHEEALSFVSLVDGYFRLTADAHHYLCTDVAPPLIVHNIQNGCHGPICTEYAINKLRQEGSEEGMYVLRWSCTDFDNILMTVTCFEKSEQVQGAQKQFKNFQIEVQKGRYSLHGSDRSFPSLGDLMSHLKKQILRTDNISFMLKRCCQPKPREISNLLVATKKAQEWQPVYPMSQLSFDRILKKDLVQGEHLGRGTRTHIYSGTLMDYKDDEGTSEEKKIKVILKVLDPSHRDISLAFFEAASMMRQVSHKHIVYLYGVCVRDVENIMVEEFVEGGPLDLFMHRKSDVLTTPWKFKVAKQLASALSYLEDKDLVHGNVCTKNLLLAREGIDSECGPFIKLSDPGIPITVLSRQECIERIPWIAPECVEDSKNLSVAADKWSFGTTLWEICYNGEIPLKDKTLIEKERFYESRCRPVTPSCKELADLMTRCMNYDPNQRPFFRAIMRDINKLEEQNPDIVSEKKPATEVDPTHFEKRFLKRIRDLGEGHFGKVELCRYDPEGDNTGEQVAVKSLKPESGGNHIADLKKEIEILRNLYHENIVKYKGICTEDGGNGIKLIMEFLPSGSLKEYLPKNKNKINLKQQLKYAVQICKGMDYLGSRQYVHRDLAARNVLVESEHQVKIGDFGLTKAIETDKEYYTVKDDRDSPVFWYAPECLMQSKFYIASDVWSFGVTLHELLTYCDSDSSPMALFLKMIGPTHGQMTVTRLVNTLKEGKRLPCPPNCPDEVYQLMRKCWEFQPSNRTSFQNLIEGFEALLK
# [26] = biological target: Receptor tyrosine-protein kinase erbB-2 (Homo sapiens) (UniProt P04626); assay: Inhibition of recombinant human His-tagged ERBB2 cytoplasmic domain expressed in baculovirus expression system at 0.1 uM by Z'-Lyte assay relative to control
# [27] = biological target: G protein-coupled receptor kinase 6 (Homo sapiens) (UniProt P43250); assay: Inhibition of recombinant human full length GST-tagged GRK6 expressed in baculovirus expression system at 0.1 uM by Z'-Lyte assay relative to control
# [28] = biological target: Proto-oncogene tyrosine-protein kinase receptor Ret (Homo sapiens) (UniProt P07949); assay: Inhibition of recombinant human GST-tagged RET cytoplasmic domain (658 to 1114 residues) expressed in baculovirus expression system at 0.1 uM by Z'-Lyte assay relative to control
# [29] = biological target: RAC-beta serine/threonine-protein kinase (Homo sapiens) (UniProt P31751); assay: Inhibition of recombinant full length human His-tagged AKT2 expressed in baculovirus expression system at 0.1 uM by TR-FRET assay relative to control
# Chain of RAC-beta serine/threonine-protein kinase (Homo sapiens) (P31751 whole entry, canonical isoform): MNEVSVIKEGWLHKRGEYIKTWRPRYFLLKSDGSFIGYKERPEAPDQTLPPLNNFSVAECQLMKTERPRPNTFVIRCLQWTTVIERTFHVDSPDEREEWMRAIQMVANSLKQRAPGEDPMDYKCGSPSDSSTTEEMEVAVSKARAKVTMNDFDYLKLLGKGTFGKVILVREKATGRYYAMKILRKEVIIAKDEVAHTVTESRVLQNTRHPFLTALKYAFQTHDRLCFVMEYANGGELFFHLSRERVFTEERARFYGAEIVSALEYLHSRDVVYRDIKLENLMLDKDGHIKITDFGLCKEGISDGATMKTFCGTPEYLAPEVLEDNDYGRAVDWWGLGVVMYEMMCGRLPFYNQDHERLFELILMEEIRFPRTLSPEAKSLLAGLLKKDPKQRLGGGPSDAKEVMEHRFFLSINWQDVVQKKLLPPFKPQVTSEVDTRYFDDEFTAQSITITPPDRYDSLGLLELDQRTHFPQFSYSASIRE
# [30] = biological target: Phosphatidylinositol 4,5-bisphosphate 3-kinase catalytic subunit beta isoform (Homo sapiens) (UniProt P42338); assay: Inhibition of PI3K beta (unknown origin) at 0.1 uM by ADP-Glo assay relative to control
# Chain of STE20-like serine/threonine-protein kinase (Homo sapiens) (Q9H2G2 whole entry, looked up, the tested form may be a part): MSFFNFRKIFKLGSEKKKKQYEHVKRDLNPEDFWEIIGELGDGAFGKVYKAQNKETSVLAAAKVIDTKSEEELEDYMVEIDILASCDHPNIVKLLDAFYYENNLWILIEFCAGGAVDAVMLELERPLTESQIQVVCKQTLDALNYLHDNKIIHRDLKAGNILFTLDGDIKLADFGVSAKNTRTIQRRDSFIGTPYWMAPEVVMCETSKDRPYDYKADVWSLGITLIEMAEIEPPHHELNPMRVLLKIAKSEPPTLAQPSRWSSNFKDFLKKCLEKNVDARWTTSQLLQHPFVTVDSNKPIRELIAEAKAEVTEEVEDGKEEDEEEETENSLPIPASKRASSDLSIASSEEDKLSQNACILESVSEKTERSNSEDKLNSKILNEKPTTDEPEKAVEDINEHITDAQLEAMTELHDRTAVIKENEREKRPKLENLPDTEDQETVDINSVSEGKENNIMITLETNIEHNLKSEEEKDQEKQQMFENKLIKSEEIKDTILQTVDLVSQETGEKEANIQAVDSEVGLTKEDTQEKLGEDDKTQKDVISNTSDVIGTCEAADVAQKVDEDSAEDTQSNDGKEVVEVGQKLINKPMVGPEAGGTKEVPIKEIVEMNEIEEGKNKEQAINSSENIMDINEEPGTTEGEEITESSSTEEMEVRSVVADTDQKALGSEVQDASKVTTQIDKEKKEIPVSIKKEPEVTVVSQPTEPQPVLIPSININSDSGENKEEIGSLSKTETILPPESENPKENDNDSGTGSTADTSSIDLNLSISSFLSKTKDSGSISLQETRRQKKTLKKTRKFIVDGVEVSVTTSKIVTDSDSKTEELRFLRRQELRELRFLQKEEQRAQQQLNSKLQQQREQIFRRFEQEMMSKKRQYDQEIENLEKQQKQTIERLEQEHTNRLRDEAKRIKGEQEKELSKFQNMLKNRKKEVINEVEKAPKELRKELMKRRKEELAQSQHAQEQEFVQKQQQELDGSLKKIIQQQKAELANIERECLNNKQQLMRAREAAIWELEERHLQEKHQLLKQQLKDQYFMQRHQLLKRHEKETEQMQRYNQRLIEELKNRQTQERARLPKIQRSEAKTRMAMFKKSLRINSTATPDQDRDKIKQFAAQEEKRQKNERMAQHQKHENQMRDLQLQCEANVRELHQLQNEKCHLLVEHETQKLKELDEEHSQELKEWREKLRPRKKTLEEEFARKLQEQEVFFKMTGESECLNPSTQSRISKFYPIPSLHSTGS
compound,measurement,setting,value
CC1=Nc2c(F)cc(-c3nc(Nc4ccc(C5CCN(C)CC5)cn4)ncc3F)cc2C12CCCC2 [CROZBACICLIB],inhibition,[1],42%
same,inhibition,[2],-3%
same,inhibition,[3],6%
same,inhibition,[4],0%
same,inhibition,[5],14%
same,inhibition,[6],11%
same,inhibition,[7],25%
same,inhibition,[8],90%
same,inhibition,[9],43%
same,inhibition,[10],48%
same,Fu,[11],0.7%
same,inhibition,[12],2%
same,inhibition,[13],79%
same,inhibition,[14],0%
same,inhibition,[15],11%
same,inhibition,[16],28%
same,inhibition,[17],2%
same,inhibition,[18],2%
same,inhibition,[19],96%
same,inhibition,[20],0%
same,Cmax,[21],2580 ng/g
same,inhibition,[22],0%
same,inhibition,[23],6%
same,inhibition,[24],4%
same,inhibition,[25],7%
same,inhibition,[26],1%
same,inhibition,[27],-4%
same,inhibition,[28],0%
same,inhibition,[29],1%
same,inhibition,[30],0%
